Laboratory results from the NIST ThermoML archive (doi:10.1021/je201107a).
± gives the expanded uncertainty stated by the source.

Key:
[1] = mn = molality of the nth substance listed, in mol/kg; conditions: 298.15 K, Ring tensiometer
[2] = cn = amount concentration of the nth substance listed, in mol/dm3; conditions: 298.15 K, Ring tensiometer

CCCCCCCCCCCCCC[N+](C)(C)C.[Br-] [tetradecyltrimethylammonium bromide] + O
[1]
Conditions	surface tension liquid-gas [mN/m]
m1 = 0.0005	53.96 ± 0.7
m1 = 0.00099	52.31 ± 0.69
m1 = 0.00148	46.35 ± 0.62
m1 = 0.00196	41.65 ± 0.56
m1 = 0.00244	39 ± 0.53
m1 = 0.00291	36.35 ± 0.5
m1 = 0.00338	34.05 ± 0.47
m1 = 0.00385	33.87 ± 0.47
m1 = 0.00431	35.02 ± 0.49
m1 = 0.00476	36.24 ± 0.5
m1 = 0.00521	35.86 ± 0.49
m1 = 0.00566	36.33 ± 0.5
m1 = 0.0061	36.74 ± 0.5
m1 = 0.00654	36.6 ± 0.5
m1 = 0.00698	36.81 ± 0.51

CCCCCCCCCC[N+](C)(C)C.[Br-] [N,N,N-trimethyl-1-decanaminium bromide] + O
[2]
Conditions	surface tension liquid-gas [mN/m]
c1 = 0.0118	54.43 ± 0.71
c1 = 0.0211	48.37 ± 0.64
c1 = 0.0286	45.75 ± 0.61
c1 = 0.0348	42.87 ± 0.58
c1 = 0.04	40.18 ± 0.55
c1 = 0.0444	37.98 ± 0.52
c1 = 0.0464	37.19 ± 0.51
c1 = 0.0483	36.21 ± 0.5
c1 = 0.05	36.15 ± 0.5
c1 = 0.0516	36.47 ± 0.5
c1 = 0.0531	35.98 ± 0.5
c1 = 0.0545	35.88 ± 0.49
c1 = 0.0559	36.19 ± 0.5
c1 = 0.0571	36.31 ± 0.5

CCCCCCCCCCCC[N+](C)(C)C.[Br-] [dodecyltrimethylammonium bromide] + O
[1]
Conditions	surface tension liquid-gas [mN/m]
m1 = 0.0005	55.13 ± 0.72
m1 = 0.00099	55.56 ± 0.72
m1 = 0.00148	53.67 ± 0.7
m1 = 0.00196	53.93 ± 0.7
m1 = 0.00244	53.53 ± 0.7
m1 = 0.00291	52.63 ± 0.69
m1 = 0.00338	52.13 ± 0.68
m1 = 0.00476	49.16 ± 0.65
m1 = 0.00654	45.2 ± 0.6
m1 = 0.00826	42.32 ± 0.57
m1 = 0.00991	39.41 ± 0.54
m1 = 0.0115	36.77 ± 0.51
m1 = 0.013	34.09 ± 0.47
m1 = 0.0138	34.98 ± 0.49
m1 = 0.0145	37.44 ± 0.51
m1 = 0.0153	37.98 ± 0.52
m1 = 0.016	38.33 ± 0.52
m1 = 0.0167	38.47 ± 0.52
m1 = 0.0177	38.69 ± 0.53
m1 = 0.0184	38.46 ± 0.52

CCCCCCCCCCCC[N+](C)(C)[O-] [Dodecyldimethylamine oxide] + O
[1]
Conditions	surface tension liquid-gas [mN/m]
m1 = 0.00025	43.18 ± 0.58
m1 = 0.0005	39.98 ± 0.54
m1 = 0.00074	39.2 ± 0.53
m1 = 0.00099	36.87 ± 0.51
m1 = 0.00123	35.11 ± 0.49
m1 = 0.00148	33.73 ± 0.47
m1 = 0.00172	33.19 ± 0.46
m1 = 0.00196	33.32 ± 0.46
m1 = 0.00244	34.06 ± 0.48
m1 = 0.00291	34.05 ± 0.47
m1 = 0.00338	34.22 ± 0.48
m1 = 0.00385	34.14 ± 0.47
m1 = 0.00431	34.17 ± 0.47
